Measurements taken from US20260016464A1, “METHOD FOR CHARACTERIZING, TYPING AND IDENTIFYING CELLS AND USE THEREOF” (Yigong Ruixin (Xiamen) Technology Co., Ltd, priority 2023, published 2026).

Columns and labels:
[1] = tested on: non-small cell lung cancer cells A549; assay: Cell viability reflected by cellular mechanical force (cellular mechanical force detection device); format: cell-based
Excerpt: This example specifically provides application of cellular physical information acquired by the characterization system for cell/multicellular aggregate interaction described in any one of examples 10 to 12 or the cellular mechanical force detection method described in example 14 in monitoring cell viability.
(§1) Please refer to FIG. 40, FIG. 41 and FIG. 42. FIG. 40 is a schematic diagram of the operation process of the cell viability detection method; FIG. 41 is a comparison diagram of cell viability measured by MTT method and cellular mechanical force measured by the device or system or method of the present invention after A549 cells are treated with different doses of 5FU for 24 h; FIG. 42 is a comparison diagram of cell viability measured by MTT method and cellular mechanical force measured by the device or system or method of the present invention after A549 cells are treated with different doses of 5FU for different times.
(§2) Specifically, in this example, non-small cell lung cancer cells A549 are cultured on multiple cellular mechanical force detection devices, treated with different doses of the cell proliferation inhibitory drug 5-fluorouracil (5-FU), and cellular mechanical force at different time points is monitored by the characterization system for cell/multicellular aggregate interaction described in any one of examples 10 to 12 or the cellular mechanical force detection method described in example 14. Cell proliferation and cytotoxicity at different time points are monitored by CCK-8 kit, and cell viability measured by MTT assay is used as a control group to obtain data in FIGS. 41 and 42.

[2] = tested on: non-small cell lung cancer cells A549; assay: Cell viability measured by MTT assay (control method); format: cell-based
Protocol: as §1, §2

[3] = different doses and times of treatment (FIGS. 41 and 42)

SMILES: O=c1[nH]cc(F)c(=O)[nH]1 [5FU, 5-fluorouracil]
- cell viability reflected by the cellular mechanical force [1, 3]: gradually decreasing trend in a dose-dependent manner
- reduction range of cell viability reflected by mechanical force ([1]; different doses, 24 h, compared with control group DMSO (FIG. 41)): larger than that reflected by the traditional MTT assay
- time at which a significant decreasing trend of cellular mechanical force can be observed ([1]; treatment dose of 0.5 μM (FIG. 42)): 6 h
- time at which a significant decreasing trend of cellular mechanical force can be observed ([1]; treatment dose of 1 μM (FIG. 42)): 3 h
- cell viability measured by the MTT assay [2, 3]: gradually decreasing trend in a dose-dependent manner
- change in cell viability measured by the MTT method ([2]; within 12 h of treatment (FIG. 42)): not obvious
